Experimental findings from patent US4927565A, “5-substituted amino-4-hydroxy-pentenoic acid derivatives and their use” (Banyu Pharmaceutical Co., Ltd., priority 1986, dated 1990) are described below.

SMILES strings stand for the structures.

In the experiment the target is T1, Human plasma renin (Homo sapiens, UniProt P00797).
T1 construct: from tissue; host or cells: human plasma
T1 sequence (P00797 67-406): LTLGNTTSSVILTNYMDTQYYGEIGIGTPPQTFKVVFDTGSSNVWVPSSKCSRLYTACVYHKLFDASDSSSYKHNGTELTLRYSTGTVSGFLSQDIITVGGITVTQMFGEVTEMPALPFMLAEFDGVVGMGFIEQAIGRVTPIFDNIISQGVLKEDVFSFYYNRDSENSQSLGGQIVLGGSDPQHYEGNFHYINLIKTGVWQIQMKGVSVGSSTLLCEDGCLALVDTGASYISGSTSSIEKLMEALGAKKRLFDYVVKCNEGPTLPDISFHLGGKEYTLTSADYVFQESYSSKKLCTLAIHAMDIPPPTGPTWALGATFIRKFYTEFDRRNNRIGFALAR
In words: Human plasma renin inhibiting activities (angiotensin I measured by radio immunoassay). The class given is biochemical. The settings on record: pH7.4, 37° C., one hour, read-out: 50% inhibition concentration IC50. The method, then: To 156 μl of a 0.2M sodium phosphate buffer solution (pH7.4), 40 μl of a solution mixture of 43 mM 8-hydroxyquinoline and 100 mM disodium ethylenediamine tetraacetate, 4 μl of dimethyl sulfoxide or a dimethyl sulfoxide solution of an inhibitor and 200 μl of human plasma were added and reacted at 37° C. for one hour. Then, pepstatin was added thereto to terminate the reaction, and the amount of the resulting angiotension I was measured by radio immunoassay whereby the inhibiting activity was determined.
`CCCC[C@H](NC(=O)[C@H](Cc1cccc2ccccc12)NC(=O)OCc1ccccc1)C(=O)N[C@@H](CC(C)C)[C@@H](O)/C=C(/C(=O)NCC(C)C)C(C)C` [Compound F, (4S,5S)-5-(L-N-benzyloxycarbonylnaphthylalanyl-L-norleucyl)amino-4-hydroxy-2-isopropyl-7-methyl-2(E)-octenoic acid isobutylamide]: the IC50 is 150 nM.

In the case of `CCCC[C@H](NC(=O)[C@H](Cc1cccc2ccccc12)NC(=O)OCc1ccccc1)C(=O)N[C@@H](CC(C)C)[C@@H](O)/C=C(\CCCO)C(=O)NCC(C)C` [Compound H, (4S,5S)-5-(L-N-benzyloxycarbonylnaphthylalanyl-L-norleucyl)-amino-4-hydroxy-2-(3-hydroxypropyl)-7-methyl-2(E)-octenoic acid isobutylamide], the IC50 was found to be 160 nM.

Regarding `CCCC[C@H](NC(=O)[C@H](Cc1cccc2ccccc12)NC(=O)OCc1ccccc1)C(=O)N[C@@H](CC(C)C)[C@@H](O)/C=C(/CCC)C(=O)NCC(C)C` [Compound E, (4S,5S)-5-(L-N-benzyloxycarbonylnaphthylalanyl-L-norleucyl)amino-4-hydroxy-2-propyl-7-methyl-2(Z)-octenoic acid isobutylamide], the IC50 was 310 nM.

For `CCCC[C@H](NC(=O)[C@H](Cc1cccc2ccccc12)NC(=O)OCc1ccccc1)C(=O)N[C@@H](CC(C)C)[C@@H](O)/C=C(\C(=O)NCC(C)C)C(C)C` [Compound G, (4S,5S)-5-(L-N-benzyloxycarbonylnaphthylalanyl-L-norleucyl)amino-4-hydroxy-2-isopropyl-7-methyl-2(Z)-octenoic acid isobutylamide], the IC50 came out at 260 nM.

Regarding `CCCC[C@H](NC(=O)[C@H](Cc1cccc2ccccc12)NC(=O)OCc1ccccc1)C(=O)N[C@@H](CC(C)C)[C@@H](O)/C=C(/CC)C(=O)NCC(C)C` [Compound C, (4S,5S)-5-(L-N-benzyloxycarbonylnaphthylalanyl-L-norleucyl)amino-2-ethyl-4-hydroxy-7-methyl-2(Z)-octenoic acid isobutylamide], the IC50 stood at 67 nM.

`CCCC[C@H](NC(=O)[C@H](Cc1cccc2ccccc12)NC(=O)OCc1ccccc1)C(=O)N[C@@H](CC(C)C)[C@@H](O)/C=C/C(=O)NCC(C)C` [Compound A, (4S,5S)-5-(L-N-benzyloxycarbonylnaphthylalanyl-L-norleucyl)amino-4-hydroxy-7-methyl-2(E)-octenoic acid isobutylamide]: the IC50 came to 1400 nM.

`CCCC[C@H](NC(=O)[C@H](Cc1cccc2ccccc12)NC(=O)OCc1ccccc1)C(=O)N[C@@H](CC(C)C)[C@@H](O)/C=C(\CC)C(=O)NCC(C)C` [Compound B, (4S,5S)-5-(L-N-benzyloxycarbonylnaphthylalanyl-L-norleucyl)amino-4-hydroxy-2-ethyl-7-methyl-2(E)-octenoic acid isobutylamide]: the IC50 is 19 nM.

Consider `CCCC[C@H](NC(=O)[C@H](Cc1cccc2ccccc12)NC(=O)OCc1ccccc1)C(=O)N[C@@H](CC(C)C)[C@@H](O)/C=C(\CCC)C(=O)NCC(C)C` [Compound D, (4S,5S)-5-(L-N-benzyloxycarbonylnaphthylalanyl-L-norleucyl)amino-4-hydroxy-2-propyl-7-methyl-2(E)-octenoic acid isobutylamide], for which the IC50 amounted to 120 nM.
